From ChEMBL document CHEMBL5233217, “Modification of 7-piperazinylquinolone antibacterials to promising anticancer lead compounds: Synthesis and in vitro studies” (Eur J Med Chem, 2020)

Experiments:
CT26 = assay: Antitumor activity against mouse CT26 cells assessed as reduction in cell viability incubated for 4 hrs by MTT assay; type: functional, cell-based; settings: CT26, 4 h
A549 [1] = assay: Antitumor activity against human A549 cells assessed as reduction in cell viability incubated for 4 hrs by MTT assay; type: functional, cell-based; settings: A549, 4 h
HL-60 = assay: Anticancer activity against human HL-60 cells assessed as reduction in cell viability incubated for 72 hrs by MTT assay; type: functional, cell-based; settings: HL-60, 72 h
A549 [2] = assay: Anticancer activity against human A549 cells assessed as reduction in cell viability incubated for 72 hrs by MTT assay; type: functional, cell-based; settings: A549, 72 h
HeLa = assay: Anticancer activity against human HeLa cells assessed as reduction in cell viability incubated for 72 hrs by MTT assay; type: functional, cell-based
[3] = tested on: Panel NCI-60 (60 carcinoma cell lines); assay: Anticancer activity against human Panel NCI-60 (60 carcinoma cell lines) cells assessed as cell growth inhibition incubated for 48 hrs by sulforhodamine B assay; type: functional
EJ = assay: Anticancer activity against human EJ cells assessed as reduction in cell viability incubated for 72 hrs by MTT assay; type: functional, cell-based
SW480 = assay: Anticancer activity against human SW480 cells assessed as reduction in cell viability incubated for 72 hrs by MTT assay; type: functional, cell-based; settings: SW480, 72 h
A-431 = assay: Anticancer activity against human A-431 cells assessed as reduction in cell viability incubated for 72 hrs by MTT assay; type: functional, cell-based; settings: A-431, 72 h
SK-MEL3 = assay: Anticancer activity against human SK-MEL3 cells assessed as reduction in cell viability incubated for 72 hrs by MTT assay; type: functional, cell-based; settings: SK-MEL3, 72 h
MCF7 = assay: Anticancer activity against human MCF7 cells assessed as reduction in cell viability incubated for 72 hrs by MTT assay; type: functional, cell-based; settings: MCF7, 72 h
KB = assay: Anticancer activity against human KB cells assessed as reduction in cell viability incubated for 72 hrs by MTT assay; type: functional, cell-based

O=C(O)c1cn(C2CC2)c2cc(N3CCN(CP(c4ccccc4)c4ccccc4)CC3)c(F)cc2c1=O
IC50 (CT26): 150 µM | IC50 (A549 [1]): 150 µM

Cc1ccc(S(=O)(=O)NC(=N)N2CCN(c3cc4c(cc3F)c(=O)c(C(=O)O)cn4C3CC3)CC2)cc1
IC50 (HL-60): 0.043 µM | IC50 (A549 [2]): 0.071 µM | IC50 (HeLa): 0.032 µM

Cc1cc(C)c(S(=O)(=O)N2CCN(c3cc4c(cc3F)c(=O)c(C(=O)O)cn4C3CC3)CC2)c(C)c1
GI50 [3]: 2.63 µM

CCn1cc(C(=O)O)c(=O)c2cc(F)c(N3CCN(C(=N)NS(=O)(=O)c4ccccc4C(F)(F)F)CC3)cc21
IC50 (HL-60): 0.043 µM | IC50 (A549 [2]): 0.071 µM | IC50 (HeLa): 0.032 µM

CCn1cc(C(=O)O)c(=O)c2cc(F)c(N3CCN(C(=N)NS(=O)(=O)c4ccccc4Cl)CC3)cc21
IC50 (HL-60): 0.043 µM | IC50 (A549 [2]): 0.071 µM | IC50 (HeLa): 0.032 µM

N=C(NS(=O)(=O)c1ccc(C(F)(F)F)cc1)N1CCN(c2cc3c(cc2F)c(=O)c(C(=O)O)cn3C2CC2)CC1
IC50 (HL-60): 0.043 µM | IC50 (A549 [2]): 0.071 µM | IC50 (HeLa): 0.032 µM

O=c1[nH]cc(F)c(=O)[nH]1 [FLUOROURACIL]
GI50 [3]: 22.6 µM

C#Cc1cccc(Nc2ncnc3cc(OCCOC)c(OCCOC)cc23)c1 [ERLOTINIB]
GI50 [3]: 7.29 µM

CO/N=C(/CN1CCN(c2cc3c(cc2F)c(=O)c(C(=O)O)cn3C2CC2)CC1)c1ccc(Cl)s1
IC50 (EJ): < 10 µM | IC50 (SW480): < 10 µM | IC50 (A-431): < 10 µM | IC50 (SK-MEL3): < 10 µM | IC50 (MCF7): < 10 µM | IC50 (KB): < 10 µM

N=C(NS(=O)(=O)c1ccc(Cl)cc1)N1CCN(c2cc3c(cc2F)c(=O)c(C(=O)O)cn3C2CC2)CC1
IC50 (HL-60): 0.043 µM | IC50 (A549 [2]): 0.071 µM | IC50 (HeLa): 0.032 µM

CCn1cc(C(=O)O)c(=O)c2cc(F)c(N3CCN(CP(c4ccccc4)c4ccccc4)CC3)cc21
IC50 (CT26): 150 µM | IC50 (A549 [1]): 150 µM

CCn1cc(C(=O)O)c(=O)c2cc(F)c(N3CCN(CP(=S)(c4ccccc4)c4ccccc4)CC3)cc21
IC50 (CT26): 150 µM | IC50 (A549 [1]): 150 µM

N=C(NS(=O)(=O)c1ccccc1)N1CCN(c2cc3c(cc2F)c(=O)c(C(=O)O)cn3C2CC2)CC1
IC50 (HL-60): 0.043 µM | IC50 (A549 [2]): 0.071 µM | IC50 (HeLa): 0.032 µM

N=C(NS(=O)(=O)c1ccccc1C(F)(F)F)N1CCN(c2cc3c(cc2F)c(=O)c(C(=O)O)cn3C2CC2)CC1
IC50 (HL-60): 0.043 µM | IC50 (A549 [2]): 0.071 µM | IC50 (HeLa): 0.032 µM

CCn1cc(C(=O)O)c(=O)c2cc(F)c(N3CCN(CP(=[Se])(c4ccccc4)c4ccccc4)CC3)cc21
IC50 (CT26): 150 µM | IC50 (A549 [1]): 150 µM

CCn1cc(C(=O)O)c(=O)c2cc(F)c(N3CCN(C/C(=N/O)c4ccc(Cl)s4)CC3)nc21
IC50 (EJ): < 10 µM | IC50 (SW480): < 10 µM | IC50 (A-431): < 10 µM | IC50 (SK-MEL3): < 10 µM | IC50 (MCF7): < 10 µM | IC50 (KB): < 10 µM

CCn1cc(C(=O)O)c(=O)c2cc(F)c(N3CCN(C(=N)NS(=O)(=O)c4ccc(Cl)cc4)CC3)cc21
IC50 (HL-60): 0.043 µM | IC50 (A549 [2]): 0.071 µM | IC50 (HeLa): 0.032 µM

CCn1cc(C(=O)O)c(=O)c2cc(F)c(N3CCN(C(=N)NS(=O)(=O)c4ccccc4)CC3)cc21
IC50 (HL-60): 0.043 µM | IC50 (A549 [2]): 0.071 µM | IC50 (HeLa): 0.032 µM

CCn1cc(C(=O)O)c(=O)c2cc(F)c(N3CCNCC3)nc21 [ENOXACIN]
IC50 (EJ): > 128 µM | IC50 (SW480): > 128 µM | IC50 (A-431): > 128 µM | IC50 (SK-MEL3): > 128 µM | IC50 (MCF7): > 128 µM | IC50 (KB): > 128 µM

CCn1cc(C(=O)O)c(=O)c2cc(F)c(N3CCN(CC(=O)c4ccccc4)CC3)cc21
GI50 [3]: 22 µM

CCn1cc(C(=O)O)c(=O)c2cc(F)c(N3CCN(C(=N)NS(=O)(=O)c4cccc(Cl)c4)CC3)cc21
IC50 (HL-60): 0.043 µM | IC50 (A549 [2]): 0.071 µM | IC50 (HeLa): 0.032 µM

O=C(O)c1cn(C2CC2)c2cc(N3CCN(CP(=[Se])(c4ccccc4)c4ccccc4)CC3)c(F)cc2c1=O
IC50 (CT26): 150 µM | IC50 (A549 [1]): 150 µM

CCn1cc(C(=O)O)c(=O)c2cc(F)c(N3CCN(CC(=O)c4ccc(OC)cc4)CC3)c(F)c21
GI50 [3]: 22 µM

CCn1cc(C(=O)O)c(=O)c2cc(F)c(N3CCN(S(=O)(=O)c4ccc(Cl)cc4)CC3)cc21
GI50 [3]: 2.63 µM

CCn1cc(C(=O)O)c(=O)c2cc(F)c(N3CCN(C/C(=N/O)c4ccc(Cl)s4)CC3)cc21
IC50 (EJ): < 10 µM | IC50 (SW480): < 10 µM | IC50 (A-431): < 10 µM | IC50 (SK-MEL3): < 10 µM | IC50 (MCF7): < 10 µM | IC50 (KB): < 10 µM

CCn1cc(C(=O)O)c(=O)c2cc(F)c(N3CCN(S(=O)(=O)c4ccc(Cl)cc4Cl)CC3)cc21
GI50 [3]: 2.63 µM

CCn1cc(C(=O)O)c(=O)c2cc(F)c(N3CCN(C/C(=N/OC)c4ccc(Cl)s4)CC3)nc21
IC50 (EJ): < 10 µM | IC50 (SW480): < 10 µM | IC50 (A-431): < 10 µM | IC50 (SK-MEL3): < 10 µM | IC50 (MCF7): < 10 µM | IC50 (KB): < 10 µM

CCn1cc(C(=O)O)c(=O)c2cc(F)c(N3CCN(S(=O)(=O)c4cccc5ccccc45)CC3)cc21
GI50 [3]: 2.63 µM

CCn1cc(C(=O)O)c(=O)c2cc(F)c(N3CCN(C(=N)NS(=O)(=O)c4ccc(C)cc4)CC3)cc21
IC50 (HL-60): 0.043 µM | IC50 (A549 [2]): 0.071 µM | IC50 (HeLa): 0.032 µM

N=C(NS(=O)(=O)c1ccccc1Cl)N1CCN(c2cc3c(cc2F)c(=O)c(C(=O)O)cn3C2CC2)CC1
IC50 (HL-60): 0.043 µM | IC50 (A549 [2]): 0.071 µM | IC50 (HeLa): 0.032 µM

CCn1cc(C(=O)O)c(=O)c2cc(F)c(N3CCN(C/C(=N/OCc4ccccc4)c4ccc(Cl)s4)CC3)cc21
IC50 (EJ): < 10 µM | IC50 (SW480): < 10 µM | IC50 (A-431): < 10 µM | IC50 (SK-MEL3): < 10 µM | IC50 (MCF7): < 10 µM | IC50 (KB): < 10 µM

CCn1cc(C(=O)O)c(=O)c2cc(F)c(N3CCN(C(=N)NS(=O)(=O)c4ccc(C(F)(F)F)cc4)CC3)cc21
IC50 (HL-60): 0.043 µM | IC50 (A549 [2]): 0.071 µM | IC50 (HeLa): 0.032 µM

CCn1cc(C(=O)O)c(=O)c2cc(F)c(N3CCN(CC(=O)c4ccc(Cl)s4)CC3)cc21
IC50 (EJ): < 10 µM | IC50 (SW480): < 10 µM | IC50 (A-431): < 10 µM | IC50 (SK-MEL3): < 10 µM | IC50 (MCF7): < 10 µM | IC50 (KB): < 10 µM

O=C(O)c1cn(C2CC2)c2cc(N3CCN(C/C(=N/O)c4ccc(Cl)s4)CC3)c(F)cc2c1=O
IC50 (EJ): < 10 µM | IC50 (SW480): < 10 µM | IC50 (A-431): < 10 µM | IC50 (SK-MEL3): < 10 µM | IC50 (MCF7): < 10 µM | IC50 (KB): < 10 µM

COc1ccc(C(=O)CN2CCN(c3cc4c(cc3F)c(=O)c(C(=O)O)cn4-c3ccc(N)cc3F)CC2)cc1
GI50 [3]: 22 µM

O=C(O)c1cn(C2CC2)c2cc(N3CCN(S(=O)(=O)c4ccc(Cl)c(Cl)c4)CC3)c(F)cc2c1=O
GI50 [3]: 2.63 µM

N=C(NS(=O)(=O)c1cccc(Cl)c1)N1CCN(c2cc3c(cc2F)c(=O)c(C(=O)O)cn3C2CC2)CC1
IC50 (HL-60): 0.043 µM | IC50 (A549 [2]): 0.071 µM | IC50 (HeLa): 0.032 µM

O=C(CN1CCN(c2cc3c(cc2F)c(=O)c(C(=O)O)cn3C2CC2)CC1)c1ccc(Cl)s1
IC50 (EJ): < 10 µM | IC50 (SW480): < 10 µM | IC50 (A-431): < 10 µM | IC50 (SK-MEL3): < 10 µM | IC50 (MCF7): < 10 µM | IC50 (KB): < 10 µM

O=C(O)c1cn(C2CC2)c2cc(N3CCN(C/C(=N/OCc4ccccc4)c4ccc(Cl)s4)CC3)c(F)cc2c1=O
IC50 (EJ): < 10 µM | IC50 (SW480): < 10 µM | IC50 (A-431): < 10 µM | IC50 (SK-MEL3): < 10 µM | IC50 (MCF7): < 10 µM | IC50 (KB): < 10 µM

CCn1cc(C(=O)O)c(=O)c2cc(F)c(N3CCN(C/C(=N/OC)c4ccc(Cl)s4)CC3)cc21
IC50 (EJ): < 10 µM | IC50 (SW480): < 10 µM | IC50 (A-431): < 10 µM | IC50 (SK-MEL3): < 10 µM | IC50 (MCF7): < 10 µM | IC50 (KB): < 10 µM

CCn1cc(C(=O)O)c(=O)c2cc(F)c(N3CCN(CC(=O)c4ccc(Cl)s4)CC3)nc21
IC50 (EJ): < 10 µM | IC50 (SW480): < 10 µM | IC50 (A-431): < 10 µM | IC50 (SK-MEL3): < 10 µM | IC50 (MCF7): < 10 µM | IC50 (KB): < 10 µM
